What was measured:
[1] = Solubilisation of dry Paclitaxel by empty liposomes, filtration, HPLC quantification
Description: The Agilent 1100 Series HPLC System (Agilent Technologies, Palo Alto, Calif., USA) consisted of a quaternary pump, an autosampler, a column thermostat and an on-line degasser. A LiChrospher 60 RP (5 μm, 4×250 mm) analytical column (Merck, Darmstadt, Germany) was used. The flow rate of the mobile phase, consisting of 32% (v/v) acetonitrile, 12% tetrahydrofuran and 56% ammoniumacetat (2 mM in water, pH value set to 4.8 with acetic acid) was set at 1 ml/min.

[2] = cited from earlier work
[3] = Solubilisation of Camptothecin by DOTAP/DOPC liposomes, UV/Vis at 369 nm; type: physicochemical; conditions: for concentration of solubilized Camptothecin: 10% trehalose
Description: Treated and untreated liposomal formulations were exposed to Camptothecin as described for Paclitaxel in Example 2.1. The concentration of solubilized Camptothecin was determined by UV/Vis-spectroscopy (Beckmann DU 640, Beckmann Coulter, Germany) at 369 nm after dilution in methanol.

| expected amount of solubilised Paclitaxel ([1]; 100 mM liposome preparation, freeze/thaw treated, extrapolated from solubilisation factor) [mM] | loading capacity of single-lipid liposomes after freezing/thawing ([1]; 100% DOTAP and 100% DOPC liposomes, 10 mM) | solubility of Paclitaxel in liposomal preparations versus liquid formulation without pre-treatment ([1]; DOTAP/DOPC 50/50 10 mM, spray dried, spray freeze-dried, freeze-dried, frozen) | amount of solubilised Paclitaxel, freeze/thawed versus untreated (factor) ([1]; DOTAP/DOPC 50/50, at a given lipid concentration) | concentration of solubilised Paclitaxel (maximum obtained) ([1]; DOTAP/DOPC 50/50 liposomes, 10-35 mM lipid, 10% trehalose, after freezing/thawing, 3 h) | loading capacity, treated versus untreated lipid dispersions (factor) ([1]; DOTAP/DOPC mixtures 25/75, 50/50, 75/25, 10 mM lipid, freeze/thaw) | loading capacity of binary lipid mixtures after freeze/thawing ([1]; DOTAP/DOPC, DOTAP/DSPC, DSTAP/DSPC 50/50) | improvement of loading capacity, untreated versus treated liposomes (factor) ([1]; DOTAP/DSPC 50/50 liposomes, freeze/thaw) | loading at 15 min incubation compared with 3 hour incubation ([1]; freeze-dried, rehydrated DOTAP/DOPC 50/50 liposomes) | solubilised concentration of Paclitaxel ([1]; per 1 mM of untreated DOTAP/DOPC) [µM] | SMILES | solubility of paclitaxel in a corresponding aqueous buffer ([2]; aqueous buffer without liposomes) | solubility of paclitaxel in water ([2]; water) | enhancement of concentration of solubilized agent, pre-treated versus untreated (factor) ([3]; DOTAP/DOPC 50/50 10 mM) | concentration of solubilized Camptothecin ([3]; pre-treated DOTAP/DOPC 50/50 10 mM) [µM] | concentration of solubilized Camptothecin ([3]; untreated DOTAP/DOPC 50/50 10 mM) [µM] |
| --- | --- | --- | --- | --- | --- | --- | --- | --- | --- | --- | --- | --- | --- | --- | --- |
| 4 | improved | elevated | about a factor of four higher | up to 1600 μM | about a factor of four higher | substantially improved | 5 | not lower | 10 | CC(=O)O[C@H]1C(=O)[C@@]2(C)[C@H]([C@H](OC(=O)c3ccccc3)[C@]3(O)C[C@H](OC(=O)[C@H](O)[C@@H](NC(=O)c4ccccc4)c4ccccc4)C(C)=C1C3(C)C)[C@]1(OC(C)=O)CO[C@@H]1C[C@@H]2O [Paclitaxel] | below 1 μM | below 1 μg/ml |  |  |  |
|  |  |  |  |  |  |  |  |  |  | CC[C@@]1(O)C(=O)OCc2c1cc1n(c2=O)Cc2cc3ccccc3nc2-1 [Camptothecin] |  |  | factor of about three | 52 | 18 |
